Reference: ChEMBL document CHEMBL3272239, “Psychotropic agents. 3. 4-(4-Substituted piperidinyl)-1-(4-fluorophenyl)-1-butanones with potent neuroleptic activity” (J Med Chem, 1978)

Columns and labels:
[1] = system: Mus musculus; assay: Neuroleptic activity in po dosed STD-ddY mouse assessed as protection against methamphetamine-induced toxicity administered 1 hr before methamphetamine challenge measured after 24 hrs; type: functional
[2] = system: Mus musculus; assay: Neuroleptic activity in po dosed STD-ddY mouse assessed as inhibition of spontaneous motor activity by measuring number of revolution of cage for 5 mins; type: functional
[3] = system: Rattus norvegicus; assay: Inhibition of methamphetamine-induced stereotyped behavior in po dosed albino Wistar rat administered 2 hrs before methamphetamine challenge measured up to 3 hrs; type: functional
[4] = system: Rattus norvegicus; assay: Ratio of ED50 for po dosed albino Wistar rat assessed as induction of catalepsy to ED50 for methamphetamine-induced stereotyped behavior in po dosed albino Wistar rat
[5] = system: Rattus norvegicus; assay: Toxicity in po dosed albino Wistar rat assessed as induction of catalepsy after 8 hrs; type: organism-based; conditions: in vivo
[6] = system: Rattus norvegicus; assay: Inhibition of apomorphine-induced stereotyped behavior in po dosed albino Wistar rat administered 2 hrs before apomorphine challenge measured after 20 mins; type: functional
[7] = system: Rattus norvegicus; assay: Ratio of ED50 for po dosed albino Wistar rat assessed as induction of catalepsy to ED50 for apomorphine-induced stereotyped behavior in po dosed albino Wistar rat
[8] = Acute toxicity in po dosed STD-ddY mouse assessed as mortality up to 7 days; type: organism-based; conditions: in vivo
[9] = system: Rattus norvegicus; assay: Ratio of haloperidol ED50 to compound ED50 for methamphetamine-induced stereotyped behavior in po dosed albino Wistar rat; type: functional
[10] = system: Rattus norvegicus; assay: Ratio of benperidol ED50 to compound ED50 for apomorphine-induced stereotyped behavior in po dosed albino Wistar rat; type: functional
[11] = system: Rattus norvegicus; assay: Ratio of haloperidol ED50 to compound ED50 for apomorphine-induced stereotyped behavior in po dosed albino Wistar rat; type: functional
[12] = system: Rattus norvegicus; assay: Ratio of benperidol ED50 to compound ED50 for methamphetamine-induced stereotyped behavior in po dosed albino Wistar rat; type: functional

SMILES	ED50 [1] [mg/kg]	ED50 [2] [mg/kg]	also measured
O=C(CCCN1CCC(n2cnc3ccccc32)CC1)c1ccc(F)cc1	> 3	4.7	–
Cc1nc2ccccc2n1C1CCN(CCCC(=O)c2ccc(F)cc2)CC1	0.81	0.85	–
CCc1nc2ccccc2n1C1CCN(CCCC(=O)c2ccc(F)cc2)CC1.Cl	> 3	9.1	–
CCCCc1nc2ccccc2n1C1CCN(CCCC(=O)c2ccc(F)cc2)CC1.Cl	> 3	14	–
Cl.O=C(CCCN1CCC(n2c(-c3ccccc3)nc3ccccc32)CC1)c1ccc(F)cc1	> 3	18	–
O=C(CCCN1CCC(n2c(C(F)(F)F)nc3ccccc32)CC1)c1ccc(F)cc1	–	> 40	–
CSc1nc2ccccc2n1C1CCN(CCCC(=O)c2ccc(F)cc2)CC1	0.68	6.2	ED50 [3]: 0.2 mg/kg; Ratio ED50 [4]: 5.5; ED50 [5]: 1.1 mg/kg; ED50 [6]: 0.41 mg/kg; Ratio ED50 [7]: 2.7; LD50 at 168 h [8]: 930 mg/kg
CCSc1nc2ccccc2n1C1CCN(CCCC(=O)c2ccc(F)cc2)CC1.Cl	> 3	5	–
Br.CC(C)Sc1nc2ccccc2n1C1CCN(CCCC(=O)c2ccc(F)cc2)CC1	1.6	4.4	–
O=C(CCCN1CCC(n2c(SCCO)nc3ccccc32)CC1)c1ccc(F)cc1	> 3	6.9	–
O=C(CCCSc1nc2ccccc2n1C1CCN(CCCC(=O)c2ccc(F)cc2)CC1)c1ccc(F)cc1	> 3	14	–
O=C(CCCN1CCC(n2c(SCC(=O)c3ccc(Cl)cc3)nc3ccccc32)CC1)c1ccc(F)cc1	1.6	5	–
O=C(CCCN1CCC(n2c(SCc3ccccc3)nc3ccccc32)CC1)c1ccc(F)cc1	0.76	1.3	–
C#CCSc1nc2ccccc2n1C1CCN(CCCC(=O)c2ccc(F)cc2)CC1.Cl	0.74	1.2	–
Br.CCOC(=O)CSc1nc2ccccc2n1C1CCN(CCCC(=O)c2ccc(F)cc2)CC1	–	> 40	–
O=C(CCCN1CCC(n2c(Sc3ccccc3[N+](=O)[O-])nc3ccccc32)CC1)c1ccc(F)cc1	–	11	–

SMILES	ED50 [1] [mg/kg]	ED50 [2] [mg/kg]	also measured
CCOC(=O)Sc1nc2ccccc2n1C1CCN(CCCC(=O)c2ccc(F)cc2)CC1	0.65	0.36	–
CCCCCCC(=O)Sc1nc2ccccc2n1C1CCN(CCCC(=O)c2ccc(F)cc2)CC1.Cl	1.1	1	–
Cl.O=C(CCCN1CCC(n2c(SC(=O)c3ccc(Cl)cc3)nc3ccccc32)CC1)c1ccc(F)cc1	0.83	0.96	–
Cl.Cn1c(=S)n(C2CCN(CCCC(=O)c3ccc(F)cc3)CC2)c2ccccc21	–	0.54	–
Br.C=CCn1c(=S)n(C2CCN(CCCC(=O)c3ccc(F)cc3)CC2)c2ccccc21	–	0.87	–
O=C(CCCN1CCC(n2nnc3ccccc32)CC1)c1ccc(F)cc1	–	33	–
Cc1nc2ccccc2n(C2CCN(CCCC(=O)c3ccc(F)cc3)CC2)c1=O	> 3	14.1	–
CC(=O)O.O=C(CCCN1CCC(n2c(=O)c(O)nc3ccccc32)CC1)c1ccc(F)cc1	> 3	> 40	–
Cc1nc2ccccc2n1C1CCN(CCCC(c2ccc(F)cc2)c2ccc(F)cc2)CC1	> 3	40	–
Fc1ccc(C(CCCN2CCC(n3c(=S)[nH]c4ccccc43)CC2)c2ccc(F)cc2)cc1	1	20	–
CSc1nc2ccccc2n1C1CCN(CCCC(c2ccc(F)cc2)c2ccc(F)cc2)CC1	2.4	13	–
OCCSc1nc2ccccc2n1C1CCN(CCCC(c2ccc(F)cc2)c2ccc(F)cc2)CC1	> 3	40	–
O=C(CCCN1CCC(n2c(O)nc3ccccc32)CC1)c1ccc(F)cc1 [BENPERIDOL]	0.63	0.56	ED50 [3]: 0.44 mg/kg; Ratio ED50 [4]: 2.1; ED50 [5]: 0.92 mg/kg; ED50 [6]: 0.62 mg/kg; Ratio ED50 [7]: 1.5
O=C(CCCN1CCC(O)(c2ccc(Cl)cc2)CC1)c1ccc(F)cc1 [HALOPERIDOL]	0.32	0.8	ED50 [3]: 0.5 mg/kg; Ratio ED50 [4]: 1.8; ED50 [5]: 0.88 mg/kg; ED50 [6]: 0.85 mg/kg; Ratio ED50 [7]: 1; LD50 at 168 h [8]: 240 mg/kg
O=c1[nH]c2ccccc2n1C1CCN(CCCC(c2ccc(F)cc2)c2ccc(F)cc2)CC1 [PIMOZIDE]	1.1	7.4	–
O=C(CCCN1CCC(n2c(=S)[nH]c3ccccc32)CC1)c1ccc(F)cc1 [TIMIPERONE]	0.55	0.6	ED50 [3]: 0.054 mg/kg; Ratio ED50 [9]: 9.3; Ratio ED50 [4]: 6.1; ED50 [5]: 0.33 mg/kg; ED50 [6]: 0.095 mg/kg; Ratio ED50 [7]: 4.5; Ratio ED50 [10]: 6.5; Ratio ED50 [11]: 8.9; LD50 at 168 h [8]: 500 mg/kg; Ratio ED50 [12]: 8.1
